The values below come from patent USRE42961E1, “Use of autonomic nervous system neurotransmitters inhibition and atrial parasympathetic fibers ablation for the treatment of atrial arrhythmias and to preserve drug effects” (St. Jude Medical, Atrial Fibrillation Division, Inc., priority 2000, dated 2011).

One test concerns atrial flutter circuit. As to the kind of experiment: Canine Y-shaped lesion model of sustained stable atrial flutter; reset-response measurement of cycle length, refractory period and excitable gap during neurotransmitter infusion with or without sotalol. It counts as in vivo, dog. How it is done:
In a group of 13 open chest anaesthetised dogs, atrial flutter model was produced during baseline conditions around the tricuspid valve using a Y-shaped lesion in the intercaval area extending to the right atrial appendage. Atrial flutter was induced at the shortest effective refractory period site using fast pacing stimulation (S1S1) of 100-150 ms. This manoeuvre was repeated as much as necessary with more damage in the Y-shaped lesion model to achieve a sustained stable atrial flutter (>10 min) during the baseline conditions. In order to determine the excitable gap duration and composition during this sustained and stable atrial flutter, a diastole was scanned with a single premature extrastimulus, S1S2 (S1S2=]refractory period, flutter cycle length[) to define the atrial flutter circuit composition and duration (flutter cycle length=refractory period+excitable gap). Atrial flutter cycle length, atrial effective refractory period and duration of the excitable gap were then determined. Measures were repeated during a constant infusion into the right coronary artery of norepinephrine (15 μg/min) and acetylcholine (2 μg/min) allowing 15 min for recovery from norepinephrine effects. The effects of norepinephrine and acetylcholine at a constant plasma level of d-sotalol or d,l-sotalol (0.8 mg/kg+0.4 mg/kg/hr) were also studied in 2 different groups of chloralose anaesthetised dogs on the same electrophysiological parameters described above.
Atrial Flutter protocol: All experiments described were in accordance with institutional guidelines for animal experimentation. Fourteen mongrel dogs of either sex, weight 29-45 kg, were studied in the post-absorptive state. General anaesthesia was induced with sodium thiopental (25 mg/kg iv.) and maintained with chloralose (80 mg/kg iv. bolus supplemented by 20 mg/kg/hr maximum as needed). The dogs were intubated and ventilated (Harvard pump) with room air (10 breaths/min, tidal volume to achieve a maximum inspiratory pressure of 20 cm water) to maintain arterial pH 7.35-7.45 and PaO2>80 mm Hg. Arterial and venous cannulae were inserted in the left femoral artery and vein by direct cut down for blood pressure monitoring and drug administration, respectively. An additional venous cannulae was inserted in the right femoral vein or in the right internal jugular vein for blood sampling. Muscular relaxation was then induced with gallamine triethiodide (Flaxedil 100) 3 mg/kg intravenously. A right thoracotomy was performed via the fourth or fifth intercostal space and the pericardium was incised to provide access to the vena cava and the right atrium. […] A second line, extending from the first two-thirds of the way toward the tip of the right atrial appendage and parallel to 1-2 cm above the atrioventricular groove, was similarly incised and sewn over. Five close (2-4 mm) bipolar epicardial silver electrodes (insulated except at the tip) for stimulating and/or recording were sewn around the base of the right atrium within 1 cm of the tricuspid annulus. Three were positioned on the anterior surface and two on the posterior surface (Derakhchan K, et al., 1994). An arterial cannula was inserted in the right coronary artery for neurotransmitter infusion.
Measurement of electrophysiologic parameters: A single lead (II) surface electrocardiogram, atrial electrograms from each of the 5 bipolar electrodes, and the femoral arterial pressure were monitored and recorded using a Nihon Kohden polygraph (Model RM6008). Data were also stored on a Hewlett-Packard tape recorder. Atrial flutter was induced by burst stimulation (20-30 beats at basic cycle length <100 ms). During stable flutter (cycle length variation <10 ms), a premature stimulus was introduced at the site located on this re-entry circuit after every 20th spontaneous beat (T) in 2 ms decrements beginning at coupling intervals equal to the cycle length of this atrial tachycardia. […]

The subject of a further test is atrial flutter. Conditions: intravenous atropine and propranolol together; supine or upright position; cited from earlier work.
The subject of test [1] is common human atrial flutter. Conditions: cited from earlier work.
Another test has as its system atrial fibrillation. Description: Canine atrial fibrillation model with vagal and stellar ganglion denervation/stimulation (ERP duration and dispersion, conduction velocity, wavelength, AF duration). It counts as in vivo, dog. Conditions: vagal stimulation in the presence of class III drug therapy. The source says: In a group of 14 anaesthetised open chest dogs, atrial fibrillation was induced by fast pacing and up to 10 attempts of arrhythmia initiations during baseline condition, vagal denervation, right and left vagal stimulation #1 (1 Hz, 0.1 ms), right and left stellar ganglions denervation, right and left vagal stimulation #2 (1 Hz, 0.1 ms), right and left stellar ganglions stimulation (10 Hz, 2 ms), and right and left vagal stimulation (1 Hz, 0.1 ms) associated with right and left stellar ganglions stimulation (10 Hz, 2 ms). Under the same conditions described above, the effective refractory period duration and dispersion (at S1S1=200 ms), the conduction velocity and the wavelength are determined. Atrial fibrillation occurrence was evaluated by the mean duration of 10 atrial fibrillation episodes at baseline (for a group of animals when none of the 10 atrial fibrillation episodes at baseline were lasting more than 3 minutes) and following each of the conditions described above. […]
Activation Mapping: Five thin plastic sheets containing 112 bipolar electrodes with 1 mm interpolar and 6 mm interelectrode distances were sewn into position on atrial epicardial surface. […] Each electrogram was analyzed with computer-determined peak-amplitude criteria and was reviewed manually. […] Isochrone maps and activation times for each activation were recorded by the use of IBM ink jet printer. […]

The mark [2] stands for this setting: d,l-sotalol group, 7 dogs, NE 15 μg/min, ACh 2 μg/min into right coronary artery, d,l-sotalol 0.8 mg/kg+0.4 mg/kg/hr.
The mark [3] stands for this setting: d-sotalol group, 6 dogs, NE 15 μg/min, ACh 2 μg/min into right coronary artery, d-sotalol 0.8 mg/kg+0.4 mg/kg/hr.

Where “and” joins values, the source holds several entries; their conditions need not be identical. Identical values can stand only once.

Turning to `NC[C@H](O)c1ccc(O)c(O)c1` [NE, norepinephrine], in the test with atrial flutter circuit (setting [2]), the “Atrial Effective Refractory Period (AERP), mean” value is 93 ± 7 ms and 93.0000 ms and 93.0 ms; the “Atrial Flutter Cycle Length (AF1CL), mean” value is 132 ± 8 ms and 131.7500 ms and 131.8 ms. In addition, the “Atrial Flutter Cycle Length (AF1CL), mean” value in the test with atrial flutter circuit (setting [3]) is 133 ± 12 ms and 133.0000 ms and 133.0 ms. Besides, in the test on atrial flutter circuit (in the presence of d-sotalol), the “reversal of d-sotalol effects on atrial flutter cycle length and effective refractory period duration” value is recorded as “significantly reversed”. Further, the “effect on effective refractory period duration” value in the test on atrial flutter circuit (infusion alone, d-sotalol group, 6 animals) is listed as “significantly shortened”. Also, the “occurrence of the initiation of atrial flutter” value in the test on atrial flutter circuit (neurotransmitter infusion, acetylcholine>>norepinephrine) was “significantly increased”.

For the compound `CC(=O)OCC[N+](C)(C)C` [ACh, acetylcholine], in the test on atrial flutter circuit (setting [2]), the “Atrial Effective Refractory Period (AERP), mean” value was 64 ± 4 ms and 63.6000 ms and 63.6 ms; the “Atrial Flutter Cycle Length (AF1CL), mean” value is 119 ± 17 ms and 119.0000 ms and 119.0 ms. In addition, in the test with atrial flutter circuit (setting [3]), the “Atrial Flutter Cycle Length (AF1CL), mean” value was 123 ± 15 ms and 122.6667 ms and 122.7 ms; the “Effective Refractory Period duration (ERPdur), mean” value was 65 ± 5 ms and 64.8000 ms and 64.8 ms; the “Excitable Gap duration (EGdur), mean” value is 48 ± 16 ms and 47.6000 ms and 47.6 ms.

With `CN1[C@@H]2CC[C@H]1C[C@@H](OC(=O)C(CO)c1ccccc1)C2` (stereo partly shown) [atropine], the “effect on atrial flutter cycle length” value in the test on atrial flutter is recorded as “did not change”.

On to `CC(C)NCC(O)COc1cccc2ccccc12` (stereo not shown) [propranolol], for which, in the test with atrial flutter, the “effect on atrial flutter cycle length” value is on record as “did not change”.

As to `CC[N+](C)(C)c1cccc(O)c1` [edrophonium], in test [1], the “effect on monophasic atrial action potential duration or atrial flutter cycle length” value was “no significant effect”.

As for `CC(C)NCC(O)c1ccc(NS(C)(=O)=O)cc1` (racemic) [d,1-S, d,l-Sotalol], the “antiarrhythmic therapeutic effects under vagal stimulation” value in the test with atrial fibrillation is “significantly and markedly reversed”. The “Atrial Flutter Cycle Length (AF1CL), mean” value in the test with atrial flutter circuit (setting [2]) was found to be 143.0 ms.
